From PubChem BioAssay AID1919006 (Molecular Pharmacology Branch, DTP, NCI, 2023)
Where “and” joins values, the source holds several entries; their conditions need not be identical. Equal values may be shown once.

Test system: 885512-296-R-J2-PDC complex spheroid growth, % test/control
Assay: Anticancer human tumor 885512-296-R-J2-PDC patient-derived breast carcinoma cell line growth inhibition [AhR]
Conditions: for viability, T/C: stronger effect = lower value
In short: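 Agents were dosed in half-log steps down from roughly clinical Cmax, or from 10 microM where Cmax was unknown, alone and with AhR antagonists. Read-out: percent test/control growth of tumor spheroids containing HUVEC and MSC stromal cells.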

[1] = curve of first compound, second compound 0.1 µM
[2] = curve of first compound, second compound 0.316 µM
[3] = curve of first compound, second compound 1 µM
[4] = curve of first compound, second compound 3.16 µM
[5] = curve of first compound, second compound 10 µM
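Further: spheroids exposed to compounds for seven days.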

## Nc1ccccc1NC(=O)c1ccc(CNC(=O)OCc2cccnc2)cc1 + Cc1cncc(-c2nc(NCCc3c[nH]c4ccccc34)c3ncn(C(C)C)c3n2)c1
[1]
  IC50: 1040 nM
[2]
  IC50: 1120 nM
[3]
  IC50: 1060 nM
[4]
  IC50: 373 nM
[5]
  IC50: < 31.6 nM
Second compound 0.1 µM, first compound 0.0316 µM
  viability, T/C: 85.6%
Second compound 0.1 µM, first compound 0.1 µM
  viability, T/C: 102%
Second compound 0.1 µM, first compound 0.316 µM
  viability, T/C: 80.5%
Second compound 0.1 µM, first compound 1 µM
  viability, T/C: 47.3%
Second compound 0.1 µM, first compound 3.16 µM
  viability, T/C: 31.2%
Second compound 0.1 µM, first compound 10 µM
  viability, T/C: 12.6%
Second compound 0.316 µM, first compound 0.0316 µM
  viability, T/C: 86.9%
Second compound 0.316 µM, first compound 0.1 µM
  viability, T/C: 94.4%
Second compound 0.316 µM, first compound 0.316 µM
  viability, T/C: 72%
Second compound 0.316 µM, first compound 1 µM
  viability, T/C: 49.4%
Second compound 0.316 µM, first compound 3.16 µM
  viability, T/C: 32.7%
Second compound 0.316 µM, first compound 10 µM
  viability, T/C: 12.2%
Second compound 1 µM, first compound 0.0316 µM
  viability, T/C: 82.3%
Second compound 1 µM, first compound 0.1 µM
  viability, T/C: 78.7%
Second compound 1 µM, first compound 0.316 µM
  viability, T/C: 77.7%
Second compound 1 µM, first compound 1 µM
  viability, T/C: 48%
Second compound 1 µM, first compound 3.16 µM
  viability, T/C: 29.6%
Second compound 1 µM, first compound 10 µM
  viability, T/C: 15.2%
Second compound 3.16 µM, first compound 0.0316 µM
  viability, T/C: 56.6%
Second compound 3.16 µM, first compound 0.1 µM
  viability, T/C: 61.3%
Second compound 3.16 µM, first compound 0.316 µM
  viability, T/C: 49.5%
Second compound 3.16 µM, first compound 1 µM
  viability, T/C: 40.4%
Second compound 3.16 µM, first compound 3.16 µM
  viability, T/C: 25.1%
Second compound 3.16 µM, first compound 10 µM
  viability, T/C: 15.2%
Second compound 10 µM, first compound 0.0316 µM
  viability, T/C: 21.3%
Second compound 10 µM, first compound 0.1 µM
  viability, T/C: 19.4%
Second compound 10 µM, first compound 0.316 µM
  viability, T/C: 15.9%
Second compound 10 µM, first compound 1 µM
  viability, T/C: 11.6%
Second compound 10 µM, first compound 3.16 µM
  viability, T/C: 9.94%
Second compound 10 µM, first compound 10 µM
  viability, T/C: 9.37%

## CCc1c2c(nc3ccc(O)cc13)-c1cc3c(c(=O)n1C2)COC(=O)[C@]3(O)CC + Cc1cncc(-c2nc(NCCc3c[nH]c4ccccc34)c3ncn(C(C)C)c3n2)c1
[1]
  IC50: < 0.949 nM
[2]
  IC50: < 0.949 nM
[3]
  IC50: < 0.949 nM
[4]
  IC50: < 0.949 nM
[5]
  IC50: < 0.949 nM
Second compound 0.1 µM, first compound 0.000949 µM
  viability, T/C: 17.1%
Second compound 0.1 µM, first compound 0.003 µM
  viability, T/C: 6.62%
Second compound 0.1 µM, first compound 0.00949 µM
  viability, T/C: 6.47%
Second compound 0.1 µM, first compound 0.03 µM
  viability, T/C: 4.7%
Second compound 0.1 µM, first compound 0.0949 µM
  viability, T/C: 3.05%
Second compound 0.1 µM, first compound 0.3 µM
  viability, T/C: 1.25%
Second compound 0.316 µM, first compound 0.000949 µM
  viability, T/C: 13.4%
Second compound 0.316 µM, first compound 0.003 µM
  viability, T/C: 8.06%
Second compound 0.316 µM, first compound 0.00949 µM
  viability, T/C: 6.14%
Second compound 0.316 µM, first compound 0.03 µM
  viability, T/C: 3.21%
Second compound 0.316 µM, first compound 0.0949 µM
  viability, T/C: 2.78%
Second compound 0.316 µM, first compound 0.3 µM
  viability, T/C: 2.11%
Second compound 1 µM, first compound 0.000949 µM
  viability, T/C: 13.7%
Second compound 1 µM, first compound 0.003 µM
  viability, T/C: 10.2%
Second compound 1 µM, first compound 0.00949 µM
  viability, T/C: 6.69%
Second compound 1 µM, first compound 0.03 µM
  viability, T/C: 3.66%
Second compound 1 µM, first compound 0.0949 µM
  viability, T/C: 3.03%
Second compound 1 µM, first compound 0.3 µM
  viability, T/C: 1.71%
Second compound 3.16 µM, first compound 0.000949 µM
  viability, T/C: 14.3%
Second compound 3.16 µM, first compound 0.003 µM
  viability, T/C: 9.78%
Second compound 3.16 µM, first compound 0.00949 µM
  viability, T/C: 8.43%
Second compound 3.16 µM, first compound 0.03 µM
  viability, T/C: 4.39%
Second compound 3.16 µM, first compound 0.0949 µM
  viability, T/C: 2.48%
Second compound 3.16 µM, first compound 0.3 µM
  viability, T/C: 2.2%
Second compound 10 µM, first compound 0.000949 µM
  viability, T/C: 15.4%
Second compound 10 µM, first compound 0.003 µM
  viability, T/C: 10.6%
Second compound 10 µM, first compound 0.00949 µM
  viability, T/C: 5.11%
Second compound 10 µM, first compound 0.03 µM
  viability, T/C: 2.46%
Second compound 10 µM, first compound 0.0949 µM
  viability, T/C: 1.12%
Second compound 10 µM, first compound 0.3 µM
  viability, T/C: 0.78%

## Nc1ncn(C2CC(O)C(CO)O2)c(=O)n1 (centres undefined)
Compound 0.00316 µM
  viability, T/C: 90.1% and 103% and 107%
Compound 0.01 µM
  viability, T/C: 89.7% and 93.7% and 117%
Compound 0.0316 µM
  viability, T/C: 98.7% and 97.9% and 108%
Compound 0.1 µM
  viability, T/C: 82.1% and 86% and 107%
Compound 0.316 µM
  viability, T/C: 65.7% and 74.5% and 72%
Compound 1 µM
  viability, T/C: 41.9% and 42.8% and 39.9%
Curve of compound
  IC50: 670 nM and 776 nM and 697 nM

## CC(C)CC(NC(=O)C(Cc1ccccc1)NC(=O)c1cnccn1)B(O)O (centres undefined)
Compound 0.000949 µM
  viability, T/C: 106% and 93.4% and 96.8%
Compound 0.003 µM
  viability, T/C: 94.4% and 94.7% and 83.5%
Compound 0.00949 µM
  viability, T/C: 19.2% and 26.2% and 9.11%
Compound 0.03 µM
  viability, T/C: 1.45% and 1.42% and 0.86%
Compound 0.0949 µM
  viability, T/C: 0.43% and 0.3% and 0.26%
Compound 0.3 µM
  viability, T/C: 0.27% and 0.21% and 0.15%
Curve of compound
  IC50: 5.92 nM and 6.34 nM and 5.04 nM
